For the experiment, the target named is T1, human recombinant HPK1 (Homo sapiens, UniProt Q92918).
T1 construct: purchased BPS Bioscience
The experiment in a line: Inhibitory activity against human recombinant HPK1 (TR-FRET). The experiment is classed as biochemical. Conditions: ULight-p70S6K peptide, ATP at Km, room temperature, 1 hour, 0.32 to 1000 nM compound. Summed up: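 IC50 classes A–D use 10, 50 and 100 nM cut-offs, derived from TR-FRET signal inhibition relative to DMSO controls. Human recombinant HPK1 phosphorylated ULight-p70S6K peptide at Km ATP for 1 h, room temperature, pH 7.4; test range 0.32–1000 nM final, detection with Eu-labelled antibody after EDTA quench.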
For orientation: In TR-FRET formats the signal depends on donor and acceptor labels being close together.

Where a name gives a salt, the structure may show the parent alone.

As a reminder, the IC50 is the concentration needed to halve the response being measured.

T1 sequence (Q92918 whole entry): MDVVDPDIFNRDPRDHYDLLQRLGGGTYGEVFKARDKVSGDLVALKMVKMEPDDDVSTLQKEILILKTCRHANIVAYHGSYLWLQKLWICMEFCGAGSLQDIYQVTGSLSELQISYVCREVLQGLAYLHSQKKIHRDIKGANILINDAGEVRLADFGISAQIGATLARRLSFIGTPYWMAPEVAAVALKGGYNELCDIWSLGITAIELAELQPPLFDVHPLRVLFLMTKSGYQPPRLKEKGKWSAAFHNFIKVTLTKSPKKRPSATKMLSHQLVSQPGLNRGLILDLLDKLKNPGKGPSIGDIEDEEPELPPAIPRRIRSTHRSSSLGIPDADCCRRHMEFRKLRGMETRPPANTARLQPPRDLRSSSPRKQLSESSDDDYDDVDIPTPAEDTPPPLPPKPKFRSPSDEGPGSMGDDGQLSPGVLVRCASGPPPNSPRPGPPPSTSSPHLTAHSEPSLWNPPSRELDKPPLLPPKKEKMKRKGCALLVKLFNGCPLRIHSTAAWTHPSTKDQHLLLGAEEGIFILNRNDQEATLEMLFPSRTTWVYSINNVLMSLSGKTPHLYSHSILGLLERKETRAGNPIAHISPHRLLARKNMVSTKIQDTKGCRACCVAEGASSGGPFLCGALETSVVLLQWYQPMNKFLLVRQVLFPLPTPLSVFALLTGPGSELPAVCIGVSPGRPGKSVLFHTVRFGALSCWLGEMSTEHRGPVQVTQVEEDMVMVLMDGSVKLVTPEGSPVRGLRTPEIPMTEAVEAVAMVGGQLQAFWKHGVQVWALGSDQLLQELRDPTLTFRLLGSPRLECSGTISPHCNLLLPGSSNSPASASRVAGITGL

Consider `COc1cccc(F)c1-c1nccc(Nc2cc(N3CC[C@H](NC(C)=O)C3)c(-c3cnn(C4CCOCC4)c3)cn2)n1` [Example 128, (S)-N-(1-(2-((2-(2-fluoro-6-methoxyphenyl)pyrimidin-4-yl)amino)-5-(1-(tetrahydro-2H-pyran-4-yl)-1H-pyrazol-4-yl)pyridin-4-yl)pyrrolidin-3-yl)acetamide], for which the IC50 is greater than 0.1 µM.

Take `COc1cccc(F)c1-c1nccc(Nc2cc(N3CCC[C@H](O)C3)c(-c3ccc(CN4CCC(N)CC4)nc3)cn2)n1` [Example 55, (S)-1-(6′-((4-aminopiperidin-1-yl)methyl)-6-((2-(2-fluoro-6-methoxyphenyl)pyrimidin-4-yl)amino)-[3,3′-bipyridin]-4-yl)piperidin-3-ol hydrochloride]: the IC50 was in the range of 0.01 to 0.05 µM.

`COc1cc(F)cc(F)c1-c1nccc(Nc2cc(N3CCC[C@H](O)C3)c(C#Cc3cnn(C(F)(F)F)c3)cn2)n1` [Example 218, (S)-1-(2-((2-(2,4-difluoro-6-methoxyphenyl)pyrimidin-4-yl)amino)-5-((1-(trifluoromethyl)-1H-pyrazol-4-yl)ethynyl)pyridin-4-yl)piperidin-3-ol]: the IC50 was no more than 0.01 µM.

For `COc1cccc(F)c1-c1nccc(Nc2cc(N3CCC[C@H](O)C3)c(-c3ccc(CN4CCC(O)C4)nc3)cn2)n1` (stereo partly drawn) [Example 43, (3S)-1-(6-((2-(2-fluoro-6-methoxyphenyl)pyrimidin-4-yl)amino)-6′-((3-hydroxypyrrolidin-1-yl)methyl)-[3,3′-bipyridin]-4-yl)piperidin-3-ol], the IC50 is no more than 0.01 µM.

As to “(S)-1-(6′-ethoxy-6-((2-(2-fluoro-6-methoxyphenyl)pyrimidin-4-yl)amino)-[3,3′-bipyridin]-4-yl)piperidin-3-ol [Example 56]”, the IC50 was 0.01 to 0.05 µM.

On to `COc1cccc(F)c1-c1nccc(N(CCN(C)C)c2cc(N3CCC[C@H](N)C3)c(-c3ccc(N)nc3)cn2)n1` [Example 240, (S)-4-(3-aminopiperidin-1-yl)-N^6-(2-(dimethylamino)ethyl)-N^6-(2-(2-fluoro-6-methoxyphenyl)pyrimidin-4-yl)-[3,3′-bipyridin]-6,6′-diamine hydrochloride], for which the IC50 is no more than 0.01 µM.

Regarding `COc1cccc(F)c1-c1nccc(Nc2cc(N3CC[C@@H](C)[C@H](N)C3)c(-c3cnn(C(F)F)c3)cn2)n1` [Example 204, N-(4-((3S,4R)-3-amino-4-methylpiperidin-1-yl)-5-(1-(difluoromethyl)-1H-pyrazol-4-yl)pyridin-2-yl)-2-(2-fluoro-6-methoxyphenyl)pyrimidin-4-amine hydrochloride], the IC50 is no more than 0.01 µM.

With `COc1cccc(F)c1-c1nccc(Nc2cc(N3CCC[C@H](N)C3)c(-c3ccc(C(=O)N4CCN(CCO)CC4)cc3)cn2)n1` [Example 288, (S)-(4-(4-(3-aminopiperidin-1-yl)-6-((2-(2-fluoro-6-methoxyphenyl)pyrimidin-4-yl)amino)pyridin-3-yl)phenyl)(4-(2-hydroxyethyl)piperazin-1-yl)methanone hydrochloride], the IC50 is no more than 0.01 µM.

With `N[C@H]1CCCN(c2cc(Nc3ccnc(-c4cc5nccnc5cc4F)n3)ncc2-c2ccc(C3CCOCC3)nc2)C1` [Example 99, (S)-4-(3-aminopiperidin-1-yl)-N-(2-(7-fluoroquinoxalin-6-yl)pyrimidin-4-yl)-6′-(tetrahydro-2H-pyran-4-yl)-[3,3′-bipyridin]-6-amine hydrochloride], the IC50 lay in the range of 0.01 to 0.05 µM.

`COc1cccc(F)c1-c1nc(Nc2cc(N3CCC[C@H](N)C3)c(-c3cnn(C(F)F)c3)cn2)ccc1C#N` [Example 301, 6-((4-((S)-3-aminopiperidin-1-yl)-5-(1-(difluoromethyl)-1H-pyrazol-4-yl)pyridin-2-yl)amino)-2-(2-fluoro-6-methoxyphenyl)nicotinonitrile hydrochloride]: the IC50 is no more than 0.01 µM.

As for `COc1cc(F)cc(F)c1-c1nccc(Nc2cc(N3CCC[C@H](N)C3)c(-c3cnn(CC(F)(F)F)c3)cn2)n1` [Example 109, (S)-N-(4-(3-aminopiperidin-1-yl)-5-(1-(2,2,2-trifluoroethyl)-1H-pyrazol-4-yl)pyridin-2-yl)-2-(2,4-difluoro-6-methoxyphenyl)pyrimidin-4-amine], the IC50 was no more than 0.01 µM.

Turning to `COc1cc(F)cc(F)c1-c1nc(Nc2cc(N3CCC[C@H](O)C3)c(-c3cnn(CC(F)F)c3)cn2)ccc1[N+](=O)[O-]` [Example 223, (3S)-1-(2-((6-(2,4-difluoro-6-methoxyphenyl)-5-nitropyridin-2-yl)amino)-5-(1-(2,2-difluoroethyl)-1H-pyrazol-4-yl)pyridin-4-yl)piperidin-3-ol], the 50% inhibitory concentration (IC50) is no more than 0.01 µM.

In the case of `COc1cccc(F)c1-c1nccc(Nc2cc(N3CCC[C@H](O)C3)c(-c3cnn(C(F)F)c3)cn2)n1` [Example 72, (S)-1-(5-(1-(difluoromethyl)-1H-pyrazol-4-yl)-2-((2-(2-fluoro-6-methoxyphenyl)pyrimidin-4-yl)amino)pyridin-4-yl)piperidin-3-ol], the half-inhibitory concentration (IC50) was no more than 0.01 µM.

As to `COc1cccc(F)c1-c1nccc(Nc2cc(N3CCC[C@H](O)C3)c(-c3ccc4nncn4c3)cn2)n1` [Example 62, (S)-1-(5-([1,2,4]triazolo[4,3-a]pyridin-6-yl)-2-((2-(2-fluoro-6-methoxyphenyl)pyrimidin-4-yl)amino)pyridin-4-yl)piperidin-3-ol], the IC50 lay within 0.05 to 0.1 µM.

With `COc1cc(C(=O)N2CC[C@@H](F)C2)cc(F)c1-c1nccc(Nc2cc(N3CCC[C@H](N)C3)c(-c3cnn(C(F)F)c3)cn2)n1` [Example 251, (4-(4-((4-((S)-3-aminopiperidin-1-yl)-5-(1-(difluoromethyl)-1H-pyrazol-4-yl)pyridin-2-yl)amino)pyrimidin-2-yl)-3-fluoro-5-methoxyphenyl)((R)-3-fluoropyrrolidin-1-yl)methanone], the IC50 is no more than 0.01 µM.

In the case of `COc1cccc(F)c1-c1nccc(Nc2cc(N3CCC[C@H](O)C3)c(-c3ccc(C(=O)N4CCOCC4)nc3)cn2)n1` [Example 37, (S)-(6′-((2-(2-fluoro-6-methoxyphenyl)pyrimidin-4-yl)amino)-4′-(3-hydroxypiperidin-1-yl)-[3,3′-bipyridin]-6-yl)(morpholino)methanone], the IC50 fell in the range of 0.01 to 0.05 µM.

`COc1cccc(F)c1-c1nccc(Nc2cc(N3CCC[C@H](O)C3)c(-c3ccc(C(F)(F)F)nc3)cn2)n1` [Example 57, (S)-1-(6-((2-(2-fluoro-6-methoxyphenyl)pyrimidin-4-yl)amino)-6′-(trifluoromethyl)-[3,3′-bipyridin]-4-yl)piperidin-3-ol]: the IC50 was in the range of 0.05 to 0.1 µM.

In the case of `COc1cccc(F)c1-c1nccc(Nc2cc(N3CC[C@@H](N)C3)c(-c3cnn(C4CCOCC4)c3)cn2)n1` [Example 96, (R)-N-(4-(3-aminopyrrolidin-1-yl)-5-(1-(tetrahydro-2H-pyran-4-yl)-1H-pyrazol-4-yl)pyridin-2-yl)-2-(2-fluoro-6-methoxyphenyl)pyrimidin-4-amine hydrochloride], the IC50 was no more than 0.01 µM.

As to `COc1cccc(F)c1-c1nccc(Nc2cc(N3CC[C@@H](N)[C@H](O)C3)c(-c3cnn(C(F)F)c3)cn2)n1` [Example 295, (3R,4R)-4-amino-1-(5-(1-(difluoromethyl)-1H-pyrazol-4-yl)-2-((2-(2-fluoro-6-methoxyphenyl)pyrimidin-4-yl)amino)pyridin-4-yl)piperidin-3-ol], the IC50 is no more than 0.01 µM.

The record behind these values is US20260347338A1, “PYRIMIDINE/PYRIDINE DERIVATIVES OR SALTS THEREOF AND PHARMACEUTICAL COMPOSITIONS COMPRISING THE SAME” (YUHAN CORPORATION, priority 2023, published 2026).
